The test system of one data set is Musca domestica. The data set can be described thus: Musca domestica - test. The class given is in vivo. The settings on record: adults; for mortality at 100 ppm: application rate of 100ppm; for mortality at 20 ppm: application rate of 20ppm. The method, then:
(§1) Solvent: dimethyl sulfoxide
(§2) To produce a suitable preparation of active compound, 10 mg of active compound are dissolved in 0.5 ml solvent, and the concentrate is diluted with water to the desired concentration.
Prior to the assay, a piece or kitchen sponge is soaked with a mixture of sugar and compound solution and placed into a container. 10 adults (Musca domestica) are placed into the container and closed with a perforated lid.
After the specified period of time, mortality in % is determined. 100 % means that all the flies have been killed; 0 % means that none of the flies have been killed.

The next data set concerns Lucilia cuprina larvae. In words: Lucilia cuprina - test (larvae). In kind it is in vivo. Conditions: in Ovis aries, read-out: activity (mortality in %). The protocol:
as §1, §2
Approximately 20 -30 (Lucilia cuprina larvae) are transferred into a test tube containing 1cm^3 of minced horse meat and 0.5 ml aqueous dilution of test compound.
After the specified period of time, mortality in % is determined. 100 % means that all the larvae have been killed; 0 % means that none of the larvae have been killed.

In the next data set the test system is Boophilus microplus. In words: Boophilus microplus - test (injection into adult ticks). Conditions: application rate of 20 µg/animal; injected into the abdomen of adult ticks; seven days. The class given is in vivo. The protocol:
Boophilus microplus - test Solvent: dimethylsulfoxide To produce a suitable preparation of active compound, 1 part by weight of active compound is mixed with the stated amount of solvent, and the concentrate is diluted with containing solvent to the desired concentration. Adult ticks (Boophilus microplus) are treated by injected with compound solution of the desired concentration into the abdomen. Ticks are transferred into replica plates and incubated in a climate chamber for seven days. Eggs which are not clearly fertile or infertile are further incubated for another 35 days until larvae hatch from the untreated controls. After the specified period of time, the laying of fertile eggs in % is determined. 100 % means that all eggs have been fertile; 0 % means that none of the eggs have been fertile.

Data set [1] can be described thus: Determination of the logP values by HPLC on reversed-phase column (C 18). In kind it is physicochemical. The method, then: Determination of the logP values:
The lambda max values were determined in the maxima of the chromatographic signals using the UV spectra from 190 nm to 400 nm.

[2] abbreviates: 0.001 m aqueous nh4hco3/acetonitrile, HPLC, reversed-phase C 18, 40 °C, [c] 0.001 molar aqueous NH4HCO3 solution and acetonitrile at pH 7.8, linear gradient from 10 % to 95 % acetonitrile (v/v).
[3] abbreviates: 0.1% aqueous phosphoric acid/acetonitrile, HPLC, reversed-phase C 18, 40 °C, [a] 0.1% aqueous phosphoric acid and acetonitrile at pH 2.3, linear gradient from 10 to 95 % (v/v) acetonitrile.
The mark [4] stands for this setting: 0.001 m aqueous nh4hco3/acetonitrile, method [c]: 0.001 molar aqueous NH4HCO3 solution and acetonitrile at pH 7.8, linear gradient from 10 % to 95 % acetonitrile (v/v), HPLC reversed-phase C 18, 40 °C.
Setting [5] is: 0.1% aqueous phosphoric acid/acetonitrile, method [a]: 0.1% aqueous phosphoric acid and acetonitrile at pH 2.3, linear gradient from 10 to 95 % (v/v) acetonitrile, HPLC reversed-phase C 18, 40 °C.

Regarding `CCSC[C@H](C)NC(=O)c1c(I)cccc1C(=O)Nc1ccc(C(C(F)F)C(F)(F)F)cc1Cl` (stereo partly drawn) [Compound 235], the mortality at 100 ppm in the data set on Musca domestica and in the data set on Lucilia cuprina larvae was not below 80% throughout. In the data set with Boophilus microplus, the “activity (laying of fertile eggs in %)” value is not below 80%. The chromatographic logP (in general, lipophilicity estimated from chromatographic retention) was determined as 3.79 in data set [1] (setting [2]) and 3.76 in data set [1] (setting [3]).

As to `CCS(=O)(=O)C[C@H](C)NC(=O)c1c(I)cccc1C(=O)Nc1ccc(C(F)(C(F)F)C(F)(F)F)cc1Cl` (stereo partly drawn) [Compound 251], the mortality at 100 ppm with Musca domestica and in the data set with Lucilia cuprina larvae was not below 80% in each case. The “activity (laying of fertile eggs in %)” value with Boophilus microplus is listed as not below 80%. In addition, the chromatographic logP came to 3.18 in data set [1] (setting [2]) and 3.12 in data set [1] (setting [3]).

As for `CCSC[C@H](C)NC(=O)c1c(I)cccc1C(=O)Nc1ccc(C(F)(C(F)F)C(F)(F)F)cc1C` (stereo partly drawn) [Compound 218], the mortality at 100 ppm in the data set with Musca domestica and in the data set on Lucilia cuprina larvae was not below 80% throughout. In the data set with Boophilus microplus, the “activity (laying of fertile eggs in %)” value is on record as not below 80%. Besides, the chromatographic logP in data set [1] (setting [2]) and in data set [1] (setting [3]) was 3.96 in each case.

On to `CSC[C@H](C)NC(=O)c1c(I)cccc1C(=O)Nc1ccc(C(C(F)F)C(F)(F)F)cc1Br` (stereo partly drawn) [Compound 227], for which the mortality at 100 ppm with Musca domestica and with Lucilia cuprina larvae was not below 80% in each case. In the data set with Boophilus microplus, the “activity (laying of fertile eggs in %)” value is reported as not below 80%. Also, the chromatographic logP in data set [1] (setting [2]) was determined as 3.54; in data set [1] (setting [3]) it was 3.51.

Turning to `CCSC[C@H](C)NC(=O)c1c(I)cccc1C(=O)Nc1ccc(C(C(F)F)C(F)(F)F)cc1Br` (stereo partly drawn) [Compound 243], the mortality at 100 ppm with Musca domestica and with Lucilia cuprina larvae was not below 80% each time. In addition, the “activity (laying of fertile eggs in %)” value in the data set with Boophilus microplus is recorded as not below 80%. The values for the chromatographic logP in data set [1] (setting [2]) and in data set [1] (setting [3]) were 3.8 and 3.78, respectively.

In the case of `Cc1c(NC(=O)c2cccc(Cl)c2C(=O)N[C@@H](C)C[S+](C)[O-])ccc(C(C(F)(F)F)C(F)(F)F)c1F` (stereo partly drawn) [Compound 406], the mortality at 100 ppm in the data set on Musca domestica and with Lucilia cuprina larvae was not below 80% each time. Besides, the “activity (laying of fertile eggs in %)” value in the data set with Boophilus microplus was not below 80%. Besides, the chromatographic logP in data set [1] (setting [4]) was determined as 2.41; in data set [1] (setting [5]), 2.5.

Regarding `Cc1cc(C(F)(C(F)(F)F)C(F)(F)F)ccc1NC(=O)c1cccc(I)c1C(=O)N[C@@H](C)CS(C)(=O)=O` [Compound 1], the mortality at 100 ppm with Musca domestica and in the data set on Lucilia cuprina larvae was not below 80% throughout. Moreover, the “activity (laying of fertile eggs in %)” value in the data set with Boophilus microplus is on record as not below 80%. For the same compound, the chromatographic logP in data set [1] (setting [4]) worked out at 3.2; in data set [1] (setting [5]), 3.18.

On to `C[C@@H](CS(C)(=O)=O)NC(=O)c1c(I)cccc1C(=O)Nc1ccc(C(C(F)F)C(F)(F)F)cc1F` (stereo partly drawn) [Compound 291], for which the mortality at 100 ppm in the data set on Musca domestica and in the data set on Lucilia cuprina larvae was not below 80% in each case. Also, the “activity (laying of fertile eggs in %)” value in the data set on Boophilus microplus was not below 80%. Also, the chromatographic logP in data set [1] (setting [2]) worked out at 2.54; in data set [1] (setting [3]), 2.5.

Regarding `CCSC[C@H](C)NC(=O)c1c(I)cccc1C(=O)Nc1ccc(C(C(F)F)C(F)(F)F)cc1C` (stereo partly drawn) [Compound 210], the mortality at 100 ppm with Musca domestica and with Lucilia cuprina larvae was not below 80% throughout. Besides, in the data set on Boophilus microplus, the “activity (laying of fertile eggs in %)” value is given as not below 80%. The chromatographic logP in data set [1] (setting [2]) was 3.62; in data set [1] (setting [3]), 3.63.

Consider `CCS(=O)(=O)C[C@H](C)NC(=O)c1c(Br)cccc1C(=O)Nc1ccc(C(C)(F)C(F)F)cc1Br` (stereo partly drawn) [Compound 424], for which the mortality (in general, the percentage killed) at 20 ppm in the data set on Musca domestica is not below 80%. Besides, the mortality at 100 ppm in the data set on Musca domestica and with Lucilia cuprina larvae was not below 80% in each case. Besides, the “activity (laying of fertile eggs in %)” value with Boophilus microplus was not below 80%. The compound further had a chromatographic logP in data set [1] (setting [5]) of 3.06.

Consider `CSC[C@H](C)NC(=O)c1c(I)cccc1C(=O)Nc1ccc(C(F)(C(F)(F)F)C(F)(F)F)c(F)c1C` [Compound 423], for which the mortality at 100 ppm with Musca domestica and with Lucilia cuprina larvae was not below 80% each time. Besides, the “activity (laying of fertile eggs in %)” value in the data set with Boophilus microplus was not below 80%. The chromatographic logP in data set [1] (setting [5]) worked out at 4.41.

In the data set on Musca domestica, `CCS(=O)(=O)C[C@H](C)NC(=O)c1c(Cl)cccc1C(=O)Nc1ccc(C(F)(F)C(F)(F)F)c(F)c1C` [Compound 372] yielded a mortality at 20 ppm not below 80%. For the same compound, in the data set with Lucilia cuprina larvae, the mortality at 100 ppm is not below 80%. Also, the “activity (laying of fertile eggs in %)” value with Boophilus microplus is recorded as not below 80%. The compound also returned a chromatographic logP in data set [1] (setting [5]) of 3.01.

Turning to `Cc1cc(C(C(F)(F)F)C(F)(F)F)c(F)cc1NC(=O)c1cccc(Cl)c1C(=O)N[C@@H](C)C[S+](C)[O-]` (stereo partly drawn) [Compound 414], the mortality at 100 ppm with Musca domestica and with Lucilia cuprina larvae was not below 80% each time. Also, the “activity (laying of fertile eggs in %)” value with Boophilus microplus is not below 80%. The chromatographic logP in data set [1] (setting [4]) was 2.51; in data set [1] (setting [5]) it was 2.58.

On to `Cc1cc(C(F)(C(F)(F)F)C(F)(F)F)ccc1NC(=O)c1cccc(Cl)c1C(=O)N[C@@H](C)CS(C)(=O)=O` [Compound 80], for which the mortality at 100 ppm with Musca domestica and in the data set with Lucilia cuprina larvae was not below 80% throughout. Further, the “activity (laying of fertile eggs in %)” value with Boophilus microplus is given as not below 80%.

Consider `CCS(=O)(=O)C[C@H](C)NC(=O)c1c(I)cccc1C(=O)Nc1ccc(C(C(F)F)C(F)(F)F)cc1Br` (stereo partly drawn) [Compound 299], for which the mortality at 100 ppm in the data set with Musca domestica and in the data set on Lucilia cuprina larvae was not below 80% in each case. The “activity (laying of fertile eggs in %)” value with Boophilus microplus is not below 80%. In addition, the chromatographic logP came out at 2.92 in data set [1] (setting [2]) and 2.87 in data set [1] (setting [3]).

Consider `Cc1cc(C(F)(C(F)F)C(F)(F)F)ccc1NC(=O)c1cccc(Cl)c1C(=O)N[C@@H](C)CS(C)(=O)=O` (stereo partly drawn) [Compound 371], for which the mortality at 100 ppm in the data set with Musca domestica and in the data set on Lucilia cuprina larvae was not below 80% in each case. For the same compound, in the data set with Boophilus microplus, the “activity (laying of fertile eggs in %)” value is reported as not below 80%. For the same compound, the chromatographic logP came to 2.64 in data set [1] (setting [4]) and 2.61 in data set [1] (setting [5]).

With `Cc1c(NC(=O)c2cccc(Cl)c2C(=O)N[C@@H](C)CS(C)(=O)=O)ccc(C(F)(F)C(F)(F)F)c1F` [Compound 363], the mortality at 100 ppm with Musca domestica and in the data set on Lucilia cuprina larvae was not below 80% in each case. Also, the “activity (laying of fertile eggs in %)” value with Boophilus microplus was not below 80%. Moreover, the chromatographic logP in data set [1] (setting [3]) was determined as 2.82.

In the case of `CSC[C@H](C)NC(=O)c1c(Cl)cccc1C(=O)Nc1ccc(C(F)(C(F)(F)F)C(F)(F)F)cc1C` [Compound 390], the mortality at 100 ppm in the data set with Musca domestica and in the data set on Lucilia cuprina larvae was not below 80% in each case. In the data set with Boophilus microplus, the “activity (laying of fertile eggs in %)” value was not below 80%.

Consider `CSC[C@H](C)NC(=O)c1c(Br)cccc1C(=O)Nc1ccc(C(F)(C(F)(F)F)C(F)(F)F)c(F)c1C` [Compound 398], for which the mortality at 100 ppm in the data set on Musca domestica and in the data set on Lucilia cuprina larvae was not below 80% throughout. Besides, the “activity (laying of fertile eggs in %)” value with Boophilus microplus is not below 80%. This compound had a chromatographic logP in data set [1] (setting [5]) of 4.31.

In the case of `CCS(=O)(=O)C[C@H](C)NC(=O)c1c(I)cccc1C(=O)Nc1ccc(C(C(F)F)C(F)(F)F)cc1F` (stereo partly drawn) [Compound 315], the mortality at 100 ppm with Musca domestica and in the data set with Lucilia cuprina larvae was not below 80% throughout. For the same compound, in the data set with Boophilus microplus, the “activity (laying of fertile eggs in %)” value is reported as not below 80%. For the same compound, the chromatographic logP stood at 2.69 in data set [1] (setting [2]) and 2.65 in data set [1] (setting [3]).

In the case of `Cc1c(NC(=O)c2cccc(I)c2C(=O)N[C@@H](C)C[S+](C)[O-])ccc(C(F)(F)C(F)(F)F)c1F` (stereo partly drawn) [Compound 323], the mortality at 100 ppm in the data set on Musca domestica and in the data set with Lucilia cuprina larvae was not below 80% each time. Besides, in the data set with Boophilus microplus, the “activity (laying of fertile eggs in %)” value was not below 80%. In data set [1] (setting [3]), this compound displayed a chromatographic logP of 2.5.

Values taken from patent EP2022493A1, “Composition comprising at least one optically active phthalamide derivative for controlling animal parasites” (Bayer CropScience AG, priority 2007, dated 2009).
